Data: PubChem BioAssay (NCI)
“And” between values parts separate entries of the source, which are not always exact repeats. Equal values may be shown once.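 Grown in 96-well plates, cells were treated for 48 hours with each compound at five concentrations. Insufficient inhibition: endpoint recorded as highest concentration tested. Abbreviation: GI50, concentration required for 50% inhibition of growth. TGI denotes the concentration required for complete inhibition of growth.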

How the values were obtained:
Test in all cases: NCI-60 cell line screen, 48 h
[1] = tested on: DMS 114 small cell lung
[2] = tested on: DMS 273 small cell lung
[3] = tested on: KM20L2 colon
[4] = tested on: M19-MEL melanoma
[5] = tested on: SNB-78 CNS
[6] = tested on: DLD-1 colon
[7] = tested on: MDA-N
[8] = tested on: XF 498 CNS
[9] = tested on: RXF-631 renal

Structure (SMILES)	TGI [1]	TGI [2]	TGI [3]	TGI [4]	TGI [5]	TGI [6]	TGI [7]	TGI [8]	other results
O=c1[nH]c(C2CCCCC2)nc2ccc(Cl)cc12	> 100 µM	> 100 µM	> 100 µM	> 100 µM	> 100 µM	–	–	–	–
Cc1c2cc[n+](C)cc2c(C)c2c1[nH]c1ccc(OC(C)(C)C)cc12	> 100 µM	> 100 µM	–	> 100 µM	> 100 µM	> 100 µM	–	–	–
C/C=C1/CN2CCC34c5ccccc5N5C(=O)C(C6CC78c9ccccc9N9C(=O)C=CC(C%10CC7N6C/C%10=C/C)C98)=CC(C1CC23)C54 (configuration not stated)	–	–	–	–	–	–	12.7 µM and 13.3 µM	–	GI50 [7]: 3.51 µM
COc1ccc(C2[C@@H](Cl)C(=O)N2c2ccc(OC)cc2)cc1 (some centres not stated)	> 100 µM	> 100 µM	–	> 100 µM	> 100 µM	> 100 µM	–	–	–
Nc1[nH]c(=S)[nH]c(=O)c1N=Nc1c(Br)cc(S(N)(=O)=O)cc1Br	–	–	–	–	–	–	> 100 µM	–	–
CC1NCCC(CC(=O)O)C1CC(=O)O (configuration not stated)	–	–	–	–	–	–	> 100 µM	–	–
O=C(Nc1ccc(-c2cn3ccccc3n2)cc1)c1cc(Br)ccc1O	–	–	–	–	–	–	> 100 µM	–	–
COc1ccc(CC2OC3(CCCCC3)CC3CCCCN32)cc1 (configuration not stated)	–	–	–	–	–	–	> 100 µM	–	–
Oc1ccc(Cl)cc1N=Nc1c(O)ccc2ccccc12	–	–	–	–	–	–	> 100 µM	–	–
NS(=O)(=O)c1ccc(NC(=O)Nc2cccc3ccccc23)cc1	–	–	–	–	–	–	> 100 µM	–	–
COC(=O)/C(=C1\OC(=O)C(c2ccc(Cl)cc2)=C1O)c1ccc(Cl)cc1	51.3 µM	36.3 µM	88.4 µM	66.2 µM	> 100 µM	> 100 µM	–	36.1 µM	–
CC1=NN(c2ccccc2)C(=O)C1N=Nc1ccc(Br)cc1C (configuration not stated)	> 100 µM	> 100 µM	> 100 µM	> 100 µM	> 100 µM	> 100 µM	–	–	TGI [9]: > 100 µM
COC(=O)C1(N2CCOCC2)CCC([C@@H](c2ccccc2)C(C)[N+](=O)[O-])C1 (some centres not stated)	–	–	–	–	–	–	> 100 µM	–	–
Cc1ccccc1C1SCc2nc3ccccc3n21 (configuration not stated)	> 100 µM	> 100 µM	–	> 100 µM	> 100 µM	> 100 µM	–	–	–
OCC1OC(NO)C(O)C(O)C1O (configuration not stated)	–	> 100 µM	> 100 µM	> 100 µM	> 100 µM	> 100 µM	–	> 100 µM	TGI [9]: > 100 µM
CC1O[C@@H]2CCCCC(=O)[C@]2(C)[C@H]1C (some centres not stated)	> 100 µM	> 100 µM	> 100 µM	> 100 µM	> 100 µM	> 100 µM	–	> 100 µM	TGI [9]: > 100 µM
O=S1c2ccccc2N=C(c2cccs2)CC1c1ccccc1O (configuration not stated)	> 100 µM	–	> 100 µM	> 100 µM	–	> 100 µM	–	> 100 µM	TGI [9]: > 100 µM
CCn1c(C)nc([N+](=O)[O-])c1Sc1ncc[nH]1	> 100 µM	> 100 µM	–	> 100 µM	> 100 µM	> 100 µM	–	> 100 µM	TGI [9]: 88 µM
O=S1(=O)CC#CC[C@@H](CO)[C@@H](CO)CC#CC1	–	–	> 100 µM	> 100 µM	> 100 µM	> 100 µM	–	> 100 µM	–

Structure (SMILES)	TGI [1]	TGI [2]	TGI [3]	TGI [4]	TGI [5]	TGI [6]	TGI [7]	TGI [8]	other results
Cc1ccc(O)c(C(=O)/C=C/c2ccccc2)c1	–	–	–	–	–	–	> 100 µM	–	–
O=S(=O)(O)c1ccc([Se][Se]c2ccc(S(=O)(=O)O)cc2)cc1	> 100 µM	> 100 µM	> 100 µM	> 100 µM	> 100 µM	> 100 µM	–	> 100 µM	–
CN(N=O)N1C(=O)SCC(c2ccccc2)(c2ccccc2)C1=O	–	–	–	–	–	–	> 100 µM	–	–
Cc1cc(NCCCCCCCCNc2cc(C)nc3cc(N(C)C)ccc23)c2ccc(N(C)C)cc2n1	6.63 µM	16.5 µM	27.3 µM	10.8 µM	> 100 µM	–	–	7.3 µM	–
COc1ccc(NC(=O)CC2SC(=Nc3ccc(Cl)cc3C)NC2=O)c([N+](=O)[O-])c1 (configuration not stated)	> 100 µM	> 100 µM	> 100 µM	> 100 µM	> 100 µM	> 100 µM	–	–	TGI [9]: > 100 µM
OCC1OC(N2CCN(C3OC(CO)C(O)C(O)C3O)CC2)C(O)C(O)C1O (configuration not stated)	–	–	–	–	–	–	> 100 µM	–	–
Oc1ccccc1-c1cnnc(-c2ccccc2O)c1	38.3 µM	–	84.3 µM	61.8 µM	> 100 µM	> 100 µM	–	32.3 µM	–
O=C(Nc1ccn(C2CCC(COC(c3ccccc3)(c3ccccc3)c3ccccc3)O2)c(=O)n1)c1ccccc1 (configuration not stated)	–	–	–	–	–	–	10.5 µM	–	–
O=C(NNC(=O)/C(=C/c1cccc([N+](=O)[O-])c1)NC(=O)c1ccccc1)Nc1ccc(Cl)cc1	26.9 µM	26.1 µM	32.4 µM	29.1 µM	> 100 µM	26.7 µM	–	26.6 µM	TGI [9]: 23.8 µM
C=C1CC2(CC(c3ccccc3C)OC(c3ccccc3C)C2)OC1=O (configuration not stated)	–	–	–	–	–	–	3.32 µM	–	–
CCCCCCCC(=O)[O-].N.N.N.N.N.[Co+3].[O-][Cl+3]([O-])([O-])[O-]	–	> 100 µM	> 100 µM	–	> 100 µM	> 100 µM	–	–	GI50 [6]: > 100 µM; GI50 [2]: > 100 µM; GI50 [3]: > 100 µM; GI50 [5]: > 100 µM
C/C(COc1ccccc1)=N\NC(N)=S	> 100 µM	> 100 µM	> 100 µM	> 100 µM	> 100 µM	> 100 µM	–	> 100 µM	–
NC(=O)C1CCCN1Cc1ccc2c(c1)OCO2 (configuration not stated)	–	–	–	–	–	–	> 100 µM	–	–
CCN(CC(O)COc1ccc2c(c1)[n+]([O-])nc(N)[n+]2[O-])C(C)=O (configuration not stated)	–	–	–	–	–	–	> 100 µM	–	–
O=C(C#Cc1ccccc1)N1CCCCC1	–	–	–	–	–	–	> 100 µM	–	–
O=C1/C(=C/c2ccc(C(=O)O)cc2)CNC/C1=C\c1ccc(C(=O)O)cc1	> 100 µM	> 100 µM	> 100 µM	> 100 µM	> 100 µM	> 100 µM	–	> 100 µM	TGI [9]: > 100 µM
COc1ccc(/C=C2\CCC(C)(CN(C)C)C2=O)cc1Br (configuration not stated)	51.9 µM	32.2 µM	17.7 µM	32.4 µM	86 µM	37.4 µM	41.2 µM	33.1 µM	–
O=Cc1cc2sc(C=O)cc2s1	> 100 µM	> 100 µM	> 100 µM	> 100 µM	> 100 µM	> 100 µM	–	> 100 µM	TGI [9]: > 100 µM
CCCCCCCCCCCCCC(=O)OCC1OC(=O)C(O)C1O (configuration not stated)	> 100 µM	–	> 100 µM	> 100 µM	–	> 100 µM	–	> 100 µM	–
